pKi: −log10 of the molar value.
How the values were obtained:
[1] = molecular target: CB1 (Homo sapiens, UniProt P21554); conditions: cited from earlier work
[2] = molecular target: CB2 (Homo sapiens, UniProt P34972); conditions: cited from earlier work
[3] = in vivo; cited from earlier work
[4] = Tolerability of CBD and THCV daily doses; type: in vivo

Sequence of CB2 (P34972 whole entry, species assumed): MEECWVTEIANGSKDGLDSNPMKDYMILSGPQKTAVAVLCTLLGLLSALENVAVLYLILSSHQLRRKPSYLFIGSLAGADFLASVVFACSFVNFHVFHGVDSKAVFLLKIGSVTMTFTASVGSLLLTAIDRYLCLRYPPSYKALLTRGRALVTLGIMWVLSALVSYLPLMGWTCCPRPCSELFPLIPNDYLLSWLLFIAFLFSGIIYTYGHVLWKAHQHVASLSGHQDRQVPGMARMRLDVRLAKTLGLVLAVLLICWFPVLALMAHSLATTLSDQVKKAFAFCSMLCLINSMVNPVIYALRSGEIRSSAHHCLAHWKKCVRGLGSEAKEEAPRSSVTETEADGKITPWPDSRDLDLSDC
Sequence of CB1 (P21554 whole entry, species assumed): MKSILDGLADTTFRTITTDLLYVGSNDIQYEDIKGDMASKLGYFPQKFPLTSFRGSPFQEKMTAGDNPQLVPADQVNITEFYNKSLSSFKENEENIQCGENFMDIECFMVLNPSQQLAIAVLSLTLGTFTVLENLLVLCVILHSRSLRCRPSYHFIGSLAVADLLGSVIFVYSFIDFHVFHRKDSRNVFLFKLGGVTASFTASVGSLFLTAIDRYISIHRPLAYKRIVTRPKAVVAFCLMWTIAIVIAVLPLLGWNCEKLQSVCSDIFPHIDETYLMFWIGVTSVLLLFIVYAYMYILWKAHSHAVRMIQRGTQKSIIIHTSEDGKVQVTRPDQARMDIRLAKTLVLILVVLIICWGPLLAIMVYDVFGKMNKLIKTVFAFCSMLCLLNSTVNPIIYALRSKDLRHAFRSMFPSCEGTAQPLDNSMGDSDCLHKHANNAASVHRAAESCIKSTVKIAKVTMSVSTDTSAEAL

In the case of `CCCCCn1cc(C(=O)c2ccc(Cl)c3ccccc23)c2ccccc21` [JWH-398], the pKi [1] is given as 8.64 and the pKi [2] is given as 8.55.

For `CCCn1c(C)c(C(=O)c2ccc(C)c3ccccc23)c2ccccc21` [JWH-148], the “selectivity for CB2 over the CB1 subtype” value [2] is given as “more than 8 times”.

For `CCCCCCC(C)(C)c1cc(O)c2c(c1)OC(C)(C)[C@@H]1CCC(=O)C[C@@H]21` (racemic) [Cesamet, (±)-trans-3-(1,1-dimethylheptyl)-6,6a,7,8,10,10a-hexahydro-lhydroxy-6-6-dimethyl-9H-dibenzo[b,d]pyran-9-one], the reducing spasticity [3] is listed as “positive results”.

For `CCCCCc1cc(O)c2c(c1)OC(C)(C)[C@@H]1CCC(C)=C[C@@H]21` [Marinol], the reducing spasticity [3] is listed as “positive results”.

For `CCCc1cc(O)c2c(c1)OC(C)(C)[C@@H]1CCC(C)=C[C@@H]21` [THCV, tetrahydrocannbivarin], the tolerability ([4]; 10 mg THCV per day) was “well tolerated”.

In the case of `C=C(C)[C@@H]1CCC(C)=C[C@H]1c1c(O)cc(CCCCC)cc1O` [CBD, 2-[(1R,6R)-6-isopropenyl-3-methylcyclohex-2-en-1-yl]-5-pentylbenzene-1,3-diol], the tolerability ([4]; 200 mg CBD per day) was “well tolerated”.

In the case of `CCCCCCC(C)(C)c1cc(O)c2c(c1)oc(=O)c1ccc(OC)cc12` [AM-1710], the “selectivity for CB2 over CB1” value [2] is listed as 54 ×.

For `CCCCC/C=C\C/C=C\C/C=C\C/C=C\CCCC(=O)N[C@H](C)CO` [Methanandamide], the pKi [1] is given as 7.75.

In the case of `CCCCCCC(C)(C)c1cc(OC)c2c(c1)OC(C)(C)C1CCC(O)CC21` (stereo not drawn) [JWH-350, 11-nor-1-methoxy-3-(1′,1′-dimethylheptyl)-9α-hydroxyhexahydrocannabinol], the “selectivity for CB2” value [2] is listed as 33 fold.

In the case of `CCCn1cc(C(=O)c2ccc(C)c3ccccc23)c2ccccc21` [JWH-120], the “selectivity for CB2” value [2] is listed as 173 fold.

In the case of `CCCCCn1cc(C(=O)c2cccc3cccc(Br)c23)c2ccccc21` [JWH-424], the pKi [1] is given as 7.68 and the pKi [2] is given as 8.26.

From patent US20220047525A1, “TRANSDERMAL PHARMACEUTICAL FORMULATIONS OF NABILONE ALONE AND IN COMBINATION WITH CANNABINOIDS” (Pike Therapeutics, Inc., priority 2020, published 2022)
